Activity calls are given as the source filed them. The rule behind the calls is not given here.
Test system: CCRIS mutagenicity, Ames/micronucleus/aberration tests
Assay: CCRIS mutagenicity studies
[1] = Test System: AMES SALMONELLA TYPHIMURIUM, Strain/Indicator: TA98, Metabolic Activation: RAT, LIVER, S-9, AROCLOR 1254, Method: PREINCUBATION
[2] = Test System: AMES SALMONELLA TYPHIMURIUM, Strain/Indicator: TA100, Metabolic Activation: RAT, LIVER, S-9, AROCLOR 1254, Method: PREINCUBATION
[3] = Test System: AMES SALMONELLA TYPHIMURIUM, Strain/Indicator: TA1537, Metabolic Activation: NONE, Method: PREINCUBATION
[4] = Test System: MOUSE LYMPHOMA, Strain/Indicator: L5178Y (TK+/TK-), Metabolic Activation: NONE, Method: SUSPENSION/PLATE

Compound: CC(O)c1ccccc1 (stereo unspecified)
- mutagenic call (Test System: AMES SALMONELLA TYPHIMURIUM, Strain/Indicator: TA98, Metabolic Activation: HAMSTER, LIVER, S-9, AROCLOR 1254 (10%), Method: PREINCUBATION): inactive; negative
- mutagenic call (Test System: AMES SALMONELLA TYPHIMURIUM, Strain/Indicator: TA98, Metabolic Activation: HAMSTER, LIVER, S-9, AROCLOR 1254, Method: PREINCUBATION): inactive; negative
- mutagenic call (Test System: AMES SALMONELLA TYPHIMURIUM, Strain/Indicator: TA98, Metabolic Activation: NONE, Method: PREINCUBATION): inactive; negative
- mutagenic call (Test System: AMES SALMONELLA TYPHIMURIUM, Strain/Indicator: TA98, Metabolic Activation: RAT, LIVER, S-9, AROCLOR 1254 (10%), Method: PREINCUBATION): inactive; negative
- mutagenic call [1]: inactive; negative
- mutagenic call (Test System: AMES SALMONELLA TYPHIMURIUM, Strain/Indicator: TA100, Metabolic Activation: HAMSTER, LIVER, S-9, AROCLOR 1254 (10%), Method: PREINCUBATION): inactive; negative
- mutagenic call (Test System: AMES SALMONELLA TYPHIMURIUM, Strain/Indicator: TA100, Metabolic Activation: HAMSTER, LIVER, S-9, AROCLOR 1254, Method: PREINCUBATION): inactive; negative
- mutagenic call (Test System: AMES SALMONELLA TYPHIMURIUM, Strain/Indicator: TA100, Metabolic Activation: NONE, Method: PREINCUBATION): inactive; negative
- mutagenic call (Test System: AMES SALMONELLA TYPHIMURIUM, Strain/Indicator: TA100, Metabolic Activation: RAT, LIVER, S-9, AROCLOR 1254 (10%), Method: PREINCUBATION): inactive; negative
- mutagenic call [2]: inactive; negative
- mutagenic call (Test System: AMES SALMONELLA TYPHIMURIUM, Strain/Indicator: TA1535, Metabolic Activation: HAMSTER, LIVER, S-9, AROCLOR 1254 (10%), Method: PREINCUBATION): inactive; negative
- mutagenic call (Test System: AMES SALMONELLA TYPHIMURIUM, Strain/Indicator: TA1535, Metabolic Activation: HAMSTER, LIVER, S-9, AROCLOR 1254, Method: PREINCUBATION): inactive; negative
- mutagenic call (Test System: AMES SALMONELLA TYPHIMURIUM, Strain/Indicator: TA1535, Metabolic Activation: NONE, Method: PREINCUBATION): inactive; negative
- mutagenic call (Test System: AMES SALMONELLA TYPHIMURIUM, Strain/Indicator: TA1535, Metabolic Activation: RAT, LIVER, S-9, AROCLOR 1254 (10%), Method: PREINCUBATION): inactive; negative
- mutagenic call (Test System: AMES SALMONELLA TYPHIMURIUM, Strain/Indicator: TA1535, Metabolic Activation: RAT, LIVER, S-9, AROCLOR 1254, Method: PREINCUBATION): inactive; negative
- mutagenic call (Test System: AMES SALMONELLA TYPHIMURIUM, Strain/Indicator: TA1537, Metabolic Activation: HAMSTER, LIVER, S-9, AROCLOR 1254 (10%), Method: PREINCUBATION): inactive; negative
- mutagenic call (Test System: AMES SALMONELLA TYPHIMURIUM, Strain/Indicator: TA1537, Metabolic Activation: HAMSTER, LIVER, S-9, AROCLOR 1254, Method: PREINCUBATION): inactive; negative
- mutagenic call [3]: inactive; negative
- mutagenic call (Test System: AMES SALMONELLA TYPHIMURIUM, Strain/Indicator: TA1537, Metabolic Activation: RAT, LIVER, S-9, AROCLOR 1254 (10%), Method: PREINCUBATION): inactive; negative
- mutagenic call (Test System: AMES SALMONELLA TYPHIMURIUM, Strain/Indicator: TA1537, Metabolic Activation: RAT, LIVER, S-9, AROCLOR 1254, Method: PREINCUBATION): inactive; negative
- mutagenic call [4]: active; positive

Compound: CCCCCn1cc2c3c(cccc31)[C@H]1C=C(C)CN(C)[C@@H]1C2
- mutagenic call (Test System: AMES SALMONELLA TYPHIMURIUM, Strain/Indicator: TA100, Metabolic Activation: RAT, LIVER, S-9, AROCLOR 1254, Method: STANDARD PLATE): active; positive

Compound: O=CC=O
- mutagenic call (End Point: IN VITRO CHROMOSOMAL ABERRATIONS, Test System: CHL CELLS, Metabolic Activation: NONE): active; positive (structural and ploidy changes)
- mutagenic call (End Point: IN VITRO CHROMOSOMAL ABERRATIONS, Test System: CHL CELLS, Metabolic Activation: RAT, LIVER, S-9, SODIUM PHENOBARBITAL AND 5,6-BENZOFLAVONE): active; positive (structural and ploidy changes)
- mutagenic call (Test System: AMES SALMONELLA TYPHIMURIUM, Strain/Indicator: TA97, Metabolic Activation: NONE, Method: PREINCUBATION): inactive; negative
- mutagenic call [1]: active; positive
- mutagenic call (Test System: AMES SALMONELLA TYPHIMURIUM, Strain/Indicator: TA100, Metabolic Activation: NONE): active; positive
- mutagenic call (Test System: AMES SALMONELLA TYPHIMURIUM, Strain/Indicator: TA100, Metabolic Activation: NONE, Method: STANDARD PLATE): active; positive
- mutagenic call (Test System: AMES SALMONELLA TYPHIMURIUM, Strain/Indicator: TA100, Metabolic Activation: RAT LIVER S-9, PHENOBARBITAL AND BETA-NAPHTHOFLAVONE, Method: PREINCUBATION): active; positive
- mutagenic call [2]: active; positive
- mutagenic call (Test System: AMES SALMONELLA TYPHIMURIUM, Strain/Indicator: TA100, Metabolic Activation: RAT, LIVER, S-9, PHENOBARBITAL AND 5,6-BENZOFLAVONE, Method: PREINCUBATION): active; positive
- mutagenic call (Test System: AMES SALMONELLA TYPHIMURIUM, Strain/Indicator: TA100, Metabolic Activation: S-9): active; positive
- mutagenic call (Test System: AMES SALMONELLA TYPHIMURIUM, Strain/Indicator: TA102, Metabolic Activation: RAT, LIVER, S-9, AROCLOR 1254, Method: PREINCUBATION): active; positive
- mutagenic call (Test System: AMES SALMONELLA TYPHIMURIUM, Strain/Indicator: TA102, Metabolic Activation: RAT, LIVER, S-9, AROCLOR 1254, Method: STANDARD PLATE): active; positive
- mutagenic call (Test System: AMES SALMONELLA TYPHIMURIUM, Strain/Indicator: TA102, Metabolic Activation: RAT, LIVER, S-9, PHENOBARBITAL AND 5,6-BENZOFLAVONE, Method: PREINCUBATION): active; positive
- mutagenic call (Test System: AMES SALMONELLA TYPHIMURIUM, Strain/Indicator: TA104, Metabolic Activation: NONE, Method: PREINCUBATION): active; positive
- mutagenic call (Test System: AMES SALMONELLA TYPHIMURIUM, Strain/Indicator: TA104, Metabolic Activation: RAT, LIVER, S-9, PHENOBARBITAL AND 5,6-BENZOFLAVONE, Method: PREINCUBATION): active; positive
- mutagenic call (Test System: AMES SALMONELLA TYPHIMURIUM, Strain/Indicator: TA1535, Metabolic Activation: RAT LIVER S-9, PHENOBARBITAL AND BETA-NAPHTHOFLAVONE, Method: PREINCUBATION): active; positive
- mutagenic call [3]: active; positive
- mutagenic call (Test System: AMES SALMONELLA TYPHIMURIUM, Strain/Indicator: TA1537, Metabolic Activation: RAT LIVER S-9, PHENOBARBITAL AND BETA-NAPHTHOFLAVONE, Method: PREINCUBATION): inactive; negative
- mutagenic call (Test System: AMES SALMONELLA TYPHIMURIUM, Strain/Indicator: TA2638A, Metabolic Activation: RAT LIVER S-9, AROCLOR 1254, Method: STANDARD PLATE): active; positive
- mutagenic call (Test System: AMES SALMONELLA TYPHIMURIUM, Strain/Indicator: TA7001, Metabolic Activation: NONE, Method: PREINCUBATION): inactive; negative
- mutagenic call (Test System: AMES SALMONELLA TYPHIMURIUM, Strain/Indicator: TA7002, Metabolic Activation: NONE, Method: PREINCUBATION): inactive; negative
- mutagenic call (Test System: AMES SALMONELLA TYPHIMURIUM, Strain/Indicator: TA7003, Metabolic Activation: NONE, Method: PREINCUBATION): inactive; negative
- mutagenic call (Test System: AMES SALMONELLA TYPHIMURIUM, Strain/Indicator: TA7004, Metabolic Activation: NONE, Method: PREINCUBATION): active; positive
- mutagenic call (Test System: AMES SALMONELLA TYPHIMURIUM, Strain/Indicator: TA7005, Metabolic Activation: NONE, Method: PREINCUBATION): active; positive
- mutagenic call (Test System: AMES SALMONELLA TYPHIMURIUM, Strain/Indicator: TA7006, Metabolic Activation: NONE, Method: PREINCUBATION): active; positive
- mutagenic call (Test System: E. COLI, Strain/Indicator: W3110, Metabolic Activation: NONE, Method: PREINCUBATION): active; positive
- mutagenic call (Test System: E. COLI, Strain/Indicator: WP2UVRA, Metabolic Activation: NONE, Method: PREINCUBATION): active; positive
- mutagenic call (Test System: E. COLI, Strain/Indicator: WP2UVRA, Metabolic Activation: RAT LIVER S-9, PHENOBARBITAL AND BETA-NAPHTHOFLAVONE, Method: PREINCUBATION): active; positive
- mutagenic call [4]: active; positive
